Experimental data taken from ChEMBL document CHEMBL3217532, “New analyses of MIC90 data to aid antibacterial drug discovery” (2011).
In brackets after ≈: the same amount, converted by molar mass.

Legend:
Type in all cases: functional
Pseudomonas aeruginosa [1] = assay: Antimicrobial activity against Pseudomonas aeruginosa 1569-05
Pseudomonas aeruginosa [2] = assay: Antimicrobial activity against Pseudomonas aeruginosa 1527-08
Pseudomonas aeruginosa [3] = assay: Antimicrobial activity against Pseudomonas aeruginosa 1570-05
Pseudomonas aeruginosa [4] = assay: Antimicrobial activity against Pseudomonas aeruginosa 1953-00
Pseudomonas aeruginosa [5] = assay: Antimicrobial activity against Pseudomonas aeruginosa 1563-00
Pseudomonas aeruginosa [6] = assay: Antimicrobial activity against Pseudomonas aeruginosa PA-4990
Pseudomonas aeruginosa [7] = assay: Antimicrobial activity against Pseudomonas aeruginosa 1612-09
Pseudomonas aeruginosa [8] = assay: Antimicrobial activity against Pseudomonas aeruginosa 1565-05
Pseudomonas aeruginosa [9] = assay: Antimicrobial activity against Pseudomonas aeruginosa 1761-00
Pseudomonas aeruginosa [10] = assay: Antimicrobial activity against Pseudomonas aeruginosa 1513-08
Pseudomonas aeruginosa [11] = assay: Antimicrobial activity against Pseudomonas aeruginosa 1753-00
Pseudomonas aeruginosa [12] = assay: Antimicrobial activity against Pseudomonas aeruginosa 1526-08
Pseudomonas aeruginosa [13] = assay: Antimicrobial activity against Pseudomonas aeruginosa 1764-00
Pseudomonas aeruginosa [14] = assay: Antimicrobial activity against Pseudomonas aeruginosa 1521-08
Pseudomonas aeruginosa [15] = assay: Antimicrobial activity against Pseudomonas aeruginosa 1752-00
Pseudomonas aeruginosa [16] = assay: Antimicrobial activity against Pseudomonas aeruginosa 1561-05
Pseudomonas aeruginosa [17] = assay: Antimicrobial activity against Pseudomonas aeruginosa 1619-08
Pseudomonas aeruginosa [18] = assay: Antimicrobial activity against Pseudomonas aeruginosa 1611-09
Pseudomonas aeruginosa [19] = assay: Antimicrobial activity against Pseudomonas aeruginosa 1510-08
Pseudomonas aeruginosa [20] = assay: Antimicrobial activity against Pseudomonas aeruginosa 1956-00
Pseudomonas aeruginosa [21] = assay: Antimicrobial activity against Pseudomonas aeruginosa 1613-09
Pseudomonas aeruginosa [22] = assay: Antimicrobial activity against Pseudomonas aeruginosa 1512-08
Pseudomonas aeruginosa [23] = assay: Antimicrobial activity against Pseudomonas aeruginosa 1767-00
Pseudomonas aeruginosa [24] = assay: Antimicrobial activity against Pseudomonas aeruginosa 1568-05
Pseudomonas aeruginosa [25] = assay: Antimicrobial activity against Pseudomonas aeruginosa 1766-00
Pseudomonas aeruginosa [26] = assay: Antimicrobial activity against Pseudomonas aeruginosa PA-4995
Pseudomonas aeruginosa [27] = assay: Antimicrobial activity against Pseudomonas aeruginosa 1952-00
Pseudomonas aeruginosa [28] = assay: Antimicrobial activity against Pseudomonas aeruginosa PA-75
Pseudomonas aeruginosa [29] = assay: Antimicrobial activity against Pseudomonas aeruginosa PA-4624
Pseudomonas aeruginosa [30] = assay: Antimicrobial activity against Pseudomonas aeruginosa PA-4997
Pseudomonas aeruginosa [31] = assay: Antimicrobial activity against Pseudomonas aeruginosa 1768-00
Pseudomonas aeruginosa [32] = assay: Antimicrobial activity against Pseudomonas aeruginosa PA-4999
Pseudomonas aeruginosa [33] = assay: Antimicrobial activity against Pseudomonas aeruginosa PA-1757
Pseudomonas aeruginosa [34] = assay: Antimicrobial activity against Pseudomonas aeruginosa 1615-09
Pseudomonas aeruginosa [35] = assay: Antimicrobial activity against Pseudomonas aeruginosa 1515-08
Pseudomonas aeruginosa [36] = assay: Antimicrobial activity against Pseudomonas aeruginosa 1523-08
Pseudomonas aeruginosa [37] = assay: Antimicrobial activity against Pseudomonas aeruginosa 1957-00
Pseudomonas aeruginosa [38] = assay: Antimicrobial activity against Pseudomonas aeruginosa 1760-00
Pseudomonas aeruginosa [39] = assay: Antimicrobial activity against Pseudomonas aeruginosa 1765-00
Pseudomonas aeruginosa [40] = assay: Antimicrobial activity against Pseudomonas aeruginosa 1514-08
Pseudomonas aeruginosa [41] = assay: Antimicrobial activity against Pseudomonas aeruginosa 1564-05
Pseudomonas aeruginosa [42] = assay: Antimicrobial activity against Pseudomonas aeruginosa PA-4993
Pseudomonas aeruginosa [43] = assay: Antimicrobial activity against Pseudomonas aeruginosa PA-4991
Pseudomonas aeruginosa [44] = assay: Antimicrobial activity against Pseudomonas aeruginosa 1614-09
Pseudomonas aeruginosa [45] = assay: Antimicrobial activity against Pseudomonas aeruginosa 1566-05
Pseudomonas aeruginosa [46] = assay: Antimicrobial activity against Pseudomonas aeruginosa 1951-00
Pseudomonas aeruginosa [47] = assay: Antimicrobial activity against Pseudomonas aeruginosa 1509-08
Pseudomonas aeruginosa [48] = assay: Antimicrobial activity against Pseudomonas aeruginosa 1562-05
Pseudomonas aeruginosa [49] = assay: Antimicrobial activity against Pseudomonas aeruginosa 1954-00
Pseudomonas aeruginosa [50] = assay: Antimicrobial activity against Pseudomonas aeruginosa 1567-05
Pseudomonas aeruginosa [51] = assay: Antimicrobial activity against Pseudomonas aeruginosa 1955-00

C[C@H]1[C@H](NC(=O)/C(=N\OC(C)(C)C(=O)O)c2csc(N)n2)C(=O)N1C(=O)NS(=O)(=O)n1nc(-c2cc(=O)c(O)c[nH]2)n(C[C@@H](O)CO)c1=O
MIC90 (Pseudomonas aeruginosa [1]): 0.25 µg/mL (≈ 0.343 µM)
MIC90 (Pseudomonas aeruginosa [2]): 0.125 µg/mL (≈ 0.172 µM)
MIC90 (Pseudomonas aeruginosa [3]): 0.25 µg/mL (≈ 0.343 µM)
MIC90 (Pseudomonas aeruginosa [4]): 0.25 µg/mL (≈ 0.343 µM)
MIC90 (Pseudomonas aeruginosa [5]): 0.06 µg/mL (≈ 0.0823 µM)
MIC90 (Pseudomonas aeruginosa [6]): 0.25 µg/mL (≈ 0.343 µM)
MIC90 (Pseudomonas aeruginosa [7]): 0.25 µg/mL (≈ 0.343 µM)
MIC90 (Pseudomonas aeruginosa [8]): 0.25 µg/mL (≈ 0.343 µM)
MIC90 (Pseudomonas aeruginosa [9]): 0.5 µg/mL (≈ 0.686 µM)
MIC90 (Pseudomonas aeruginosa [10]): 0.25 µg/mL (≈ 0.343 µM)
MIC90 (Pseudomonas aeruginosa [11]): 0.125 µg/mL (≈ 0.172 µM)
MIC90 (Pseudomonas aeruginosa [12]): 0.125 µg/mL (≈ 0.172 µM)
MIC90 (Pseudomonas aeruginosa [13]): 0.06 µg/mL (≈ 0.0823 µM)
MIC90 (Pseudomonas aeruginosa [14]): 0.5 µg/mL (≈ 0.686 µM)
MIC90 (Pseudomonas aeruginosa [15]): 0.125 µg/mL (≈ 0.172 µM)
MIC90 (Pseudomonas aeruginosa [16]): 0.5 µg/mL (≈ 0.686 µM)
MIC90 (Pseudomonas aeruginosa [17]): 0.015 µg/mL (≈ 0.0206 µM)
MIC90 (Pseudomonas aeruginosa [18]): 0.03 µg/mL (≈ 0.0412 µM)
MIC90 (Pseudomonas aeruginosa [19]): 1 µg/mL (≈ 1.37 µM)
MIC90 (Pseudomonas aeruginosa [20]): 0.03 µg/mL (≈ 0.0412 µM)
MIC90 (Pseudomonas aeruginosa [21]): 0.25 µg/mL (≈ 0.343 µM)
MIC90 (Pseudomonas aeruginosa [22]): 0.125 µg/mL (≈ 0.172 µM)
MIC90 (Pseudomonas aeruginosa [23]): 0.06 µg/mL (≈ 0.0823 µM)
MIC90 (Pseudomonas aeruginosa [24]): 0.125 µg/mL (≈ 0.172 µM)
MIC90 (Pseudomonas aeruginosa [25]): 2 µg/mL (≈ 2.74 µM)
MIC90 (Pseudomonas aeruginosa [26]): 0.03 µg/mL (≈ 0.0412 µM)
MIC90 (Pseudomonas aeruginosa [27]): 0.125 µg/mL (≈ 0.172 µM)
MIC90 (Pseudomonas aeruginosa [28]): 0.25 µg/mL (≈ 0.343 µM)
MIC90 (Pseudomonas aeruginosa [29]): 0.25 µg/mL (≈ 0.343 µM)
MIC90 (Pseudomonas aeruginosa [30]): 0.125 µg/mL (≈ 0.172 µM)
MIC90 (Pseudomonas aeruginosa [31]): 0.06 µg/mL (≈ 0.0823 µM)
MIC90 (Pseudomonas aeruginosa [32]): 0.125 µg/mL (≈ 0.172 µM)
MIC90 (Pseudomonas aeruginosa [33]): 4 µg/mL (≈ 5.49 µM)
MIC90 (Pseudomonas aeruginosa [34]): 0.25 µg/mL (≈ 0.343 µM)
MIC90 (Pseudomonas aeruginosa [35]): 0.125 µg/mL (≈ 0.172 µM)
MIC90 (Pseudomonas aeruginosa [36]): 0.125 µg/mL (≈ 0.172 µM)
MIC90 (Pseudomonas aeruginosa [37]): 0.03 µg/mL (≈ 0.0412 µM)
MIC90 (Pseudomonas aeruginosa [38]): 0.25 µg/mL (≈ 0.343 µM)
MIC90 (Pseudomonas aeruginosa [39]): 0.5 µg/mL (≈ 0.686 µM)
MIC90 (Pseudomonas aeruginosa [40]): 0.25 µg/mL (≈ 0.343 µM)
MIC90 (Pseudomonas aeruginosa [41]): 0.06 µg/mL (≈ 0.0823 µM)
MIC90 (Pseudomonas aeruginosa [42]): 0.03 µg/mL (≈ 0.0412 µM)
MIC90 (Pseudomonas aeruginosa [43]): 0.125 µg/mL (≈ 0.172 µM)
MIC90 (Pseudomonas aeruginosa [44]): 0.125 µg/mL (≈ 0.172 µM)
MIC90 (Pseudomonas aeruginosa [45]): 0.06 µg/mL (≈ 0.0823 µM)
MIC90 (Pseudomonas aeruginosa [46]): 0.125 µg/mL (≈ 0.172 µM)
MIC90 (Pseudomonas aeruginosa [47]): 1 µg/mL (≈ 1.37 µM)
MIC90 (Pseudomonas aeruginosa [48]): 0.06 µg/mL (≈ 0.0823 µM)
MIC90 (Pseudomonas aeruginosa [49]): 0.015 µg/mL (≈ 0.0206 µM)
MIC90 (Pseudomonas aeruginosa [50]): 0.06 µg/mL (≈ 0.0823 µM)
MIC90 (Pseudomonas aeruginosa [51]): 0.06 µg/mL (≈ 0.0823 µM)

C[C@H]1[C@H](NC(=O)/C(=N\OC(C)(C)C(=O)O)c2csc(N)n2)C(=O)N1C(=O)NS(=O)(=O)n1nc(-c2cc(=O)c(O)c[nH]2)n(CC(N)=O)c1=O
MIC90 (Pseudomonas aeruginosa [1]): 0.25 µg/mL (≈ 0.351 µM)
MIC90 (Pseudomonas aeruginosa [2]): 0.25 µg/mL (≈ 0.351 µM)
MIC90 (Pseudomonas aeruginosa [3]): 0.25 µg/mL (≈ 0.351 µM)
MIC90 (Pseudomonas aeruginosa [4]): 0.5 µg/mL (≈ 0.703 µM)
MIC90 (Pseudomonas aeruginosa [5]): 0.125 µg/mL (≈ 0.176 µM)
MIC90 (Pseudomonas aeruginosa [6]): 0.25 µg/mL (≈ 0.351 µM)
MIC90 (Pseudomonas aeruginosa [7]): 0.25 µg/mL (≈ 0.351 µM)
MIC90 (Pseudomonas aeruginosa [8]): 0.125 µg/mL (≈ 0.176 µM)
MIC90 (Pseudomonas aeruginosa [9]): 0.5 µg/mL (≈ 0.703 µM)
MIC90 (Pseudomonas aeruginosa [10]): 0.5 µg/mL (≈ 0.703 µM)
MIC90 (Pseudomonas aeruginosa [11]): 0.25 µg/mL (≈ 0.351 µM)
MIC90 (Pseudomonas aeruginosa [12]): 0.5 µg/mL (≈ 0.703 µM)
MIC90 (Pseudomonas aeruginosa [13]): 0.25 µg/mL (≈ 0.351 µM)
MIC90 (Pseudomonas aeruginosa [14]): 0.5 µg/mL (≈ 0.703 µM)
MIC90 (Pseudomonas aeruginosa [15]): 0.25 µg/mL (≈ 0.351 µM)
MIC90 (Pseudomonas aeruginosa [16]): 0.5 µg/mL (≈ 0.703 µM)
MIC90 (Pseudomonas aeruginosa [17]): 0.06 µg/mL (≈ 0.0843 µM)
MIC90 (Pseudomonas aeruginosa [18]): 0.06 µg/mL (≈ 0.0843 µM)
MIC90 (Pseudomonas aeruginosa [19]): 2 µg/mL (≈ 2.81 µM)
MIC90 (Pseudomonas aeruginosa [20]): 0.06 µg/mL (≈ 0.0843 µM)
MIC90 (Pseudomonas aeruginosa [21]): 0.5 µg/mL (≈ 0.703 µM)
MIC90 (Pseudomonas aeruginosa [22]): 0.25 µg/mL (≈ 0.351 µM)
MIC90 (Pseudomonas aeruginosa [23]): 0.25 µg/mL (≈ 0.351 µM)
MIC90 (Pseudomonas aeruginosa [24]): 0.25 µg/mL (≈ 0.351 µM)
MIC90 (Pseudomonas aeruginosa [25]): 16 µg/mL (≈ 22.5 µM)
MIC90 (Pseudomonas aeruginosa [26]): 0.06 µg/mL (≈ 0.0843 µM)
MIC90 (Pseudomonas aeruginosa [27]): 0.25 µg/mL (≈ 0.351 µM)
MIC90 (Pseudomonas aeruginosa [28]): 0.25 µg/mL (≈ 0.351 µM)
MIC90 (Pseudomonas aeruginosa [29]): 0.25 µg/mL (≈ 0.351 µM)
MIC90 (Pseudomonas aeruginosa [30]): 0.25 µg/mL (≈ 0.351 µM)
MIC90 (Pseudomonas aeruginosa [31]): 0.06 µg/mL (≈ 0.0843 µM)
MIC90 (Pseudomonas aeruginosa [32]): 0.25 µg/mL (≈ 0.351 µM)
MIC90 (Pseudomonas aeruginosa [33]): 4 µg/mL (≈ 5.62 µM)
MIC90 (Pseudomonas aeruginosa [34]): 0.25 µg/mL (≈ 0.351 µM)
MIC90 (Pseudomonas aeruginosa [35]): 0.25 µg/mL (≈ 0.351 µM)
MIC90 (Pseudomonas aeruginosa [36]): 0.25 µg/mL (≈ 0.351 µM)
MIC90 (Pseudomonas aeruginosa [37]): 0.125 µg/mL (≈ 0.176 µM)
MIC90 (Pseudomonas aeruginosa [38]): 1 µg/mL (≈ 1.41 µM)
MIC90 (Pseudomonas aeruginosa [39]): 1 µg/mL (≈ 1.41 µM)
MIC90 (Pseudomonas aeruginosa [40]): 0.5 µg/mL (≈ 0.703 µM)
MIC90 (Pseudomonas aeruginosa [41]): 0.125 µg/mL (≈ 0.176 µM)
MIC90 (Pseudomonas aeruginosa [42]): 0.06 µg/mL (≈ 0.0843 µM)
MIC90 (Pseudomonas aeruginosa [43]): 0.25 µg/mL (≈ 0.351 µM)
MIC90 (Pseudomonas aeruginosa [44]): 0.25 µg/mL (≈ 0.351 µM)
MIC90 (Pseudomonas aeruginosa [45]): 0.25 µg/mL (≈ 0.351 µM)
MIC90 (Pseudomonas aeruginosa [46]): 0.25 µg/mL (≈ 0.351 µM)
MIC90 (Pseudomonas aeruginosa [47]): 1 µg/mL (≈ 1.41 µM)
MIC90 (Pseudomonas aeruginosa [48]): 0.125 µg/mL (≈ 0.176 µM)
MIC90 (Pseudomonas aeruginosa [49]): 0.06 µg/mL (≈ 0.0843 µM)
MIC90 (Pseudomonas aeruginosa [50]): 0.125 µg/mL (≈ 0.176 µM)
MIC90 (Pseudomonas aeruginosa [51]): 0.125 µg/mL (≈ 0.176 µM)
